Data from publication PMC5736175, “Nicotinic alpha 7 receptor agonists EVP-6124 and BMS-933043, attenuate scopolamine-induced deficits in visuo-spatial paired associates learning” (PLoS ONE, 2017).
Values joined by “and” are separate entries in the source; they are usually repeats but may differ in a detail not shown here. Equal entries are not always repeated.

Key:
[1] = Plasma pharmacokinetics in satellite animals (LC-MS/MS), 60 min after i.m. dose; conditions: for concentration at 60 min: cynomolgus monkey, in vivo, nM total compound in plasma from satellite animals
Protocol: (§1) For all compounds, plasma pharmacokinetic studies were conducted in a separate cohort of cynomolgus monkeys (N = 2–3 subjects per dose) before beginning vsPAL testing to help guide dose selection. Blood samples were obtained with the animals awake and sitting in a primate chair.
(§2) Plasma concentrations of test compounds were determined using LC-MS/MS assays. In brief, 50 μL plasma and sample containing compounds was extracted by protein precipitation method with 150 μL acetonitrile containing an internal standard. A 5 μL sample of supernatant was injected into the LC-MS/MS system. Analytes were separated by reversed phase chromatography and detection of each analyte was achieved through selected reaction monitoring mode of mass spectrometry. Samples were quantified by calculated peak area ratio of analyte and internal standard against a calibration curve.

[2] = Plasma concentration in vsPAL subjects immediately after completion of testing (LC-MS/MS); conditions: for concentration at 69.8 min: cynomolgus monkey, in vivo
Protocol: as §1, with “chair. For most test sessions with BMS-933043 and EVP-6124, plasma samples were also taken from a subset of vsPAL subjects (N = 4–5) immediately after completion of testing (mean (SD) sample collection time = 69.8 (9.8) min post injection).” for “chair.”
as §2

human nAChR α7 = system: human nAChR α7; design: method as in PMID 27467081; conditions: intrinsic activity; HEK293 cells expressing human nAChR α7; cited from earlier work
5-HT3 receptor = conditions: cited from earlier work
[3] = 0.03 mg/kg i.m., individual subjects
[4] = 0.10 mg/kg i.m., individual subjects
[5] = 0.30 mg/kg i.m., individual subjects
[6] = 1.00 mg/kg i.m., individual subjects

c1cn(-c2cc(NC3=NC[C@@]4(CN5CCC4CC5)O3)ncn2)cn1 [BMS-933043, (2R)-N-(6-(1H-imidazol-1-yl)-4-pyrimidinyl)-4'H-spiro[4-azabicyclo[2.2.2]octane-2,5'-[1, 3]oxazol]-2'-amine]
nM total compound in plasma from satellite animals, 60 min [1, 3]: 16.6 nM and 18.4 nM | nM total compound in plasma from satellite animals, 60 min [1, 4]: 60.9 nM and 70.1 nM | nM total compound in plasma from satellite animals, 60 min [1, 5]: 145.0 nM and 280.0 nM and 133.0 nM | nM total compound in plasma from satellite animals, 60 min [1, 6]: 1100.0 nM | concentration at 60 min ([1]; 0.03 mg/kg, 0.03 mg/kg i.m., individual subjects): 20.1 nM | concentration at 60 min ([1]; 0.03 mg/kg, 0.03 mg/kg i.m., mean): 18.4 nM | concentration at 60 min ([1]; 0.1 mg/kg, 0.10 mg/kg i.m., individual subjects): 66.6 nM | concentration at 60 min ([1]; 0.1 mg/kg, 0.10 mg/kg i.m., mean): 65.9 nM | concentration at 60 min ([1]; 0.3 mg/kg, 0.30 mg/kg i.m., mean): 186 nM | concentration at 60 min ([1]; 1 mg/kg, 1.00 mg/kg i.m., individual subjects): 739 nM | concentration at 60 min ([1]; 1 mg/kg, 1.00 mg/kg i.m., mean): 920 nM | nM total compound in plasma post session [2, 3]: 14.6 nM and 11.9 nM and 13.1 nM | nM total compound in plasma post session [2, 4]: 37.9 nM and 51.3 nM and 45.6 nM | nM total compound in plasma post session [2, 5]: 156 nM and 134 nM and 143 nM | nM total compound in plasma post session [2, 6]: 414 nM and 530 nM and 413 nM | concentration at 69.8 min ([2]; 0.03 mg/kg, nM total compound in plasma post session, 0.03 mg/kg i.m., individual subjects): 13.4 nM | concentration at 69.8 min ([2]; 0.03 mg/kg, nM total compound in plasma post session, 0.03 mg/kg i.m., mean 69.8 min post injection, group mean): 13.3 nM | concentration at 69.8 min ([2]; 0.1 mg/kg, nM total compound in plasma post session, 0.10 mg/kg i.m., individual subjects): 56.3 nM | concentration at 69.8 min ([2]; 0.1 mg/kg, nM total compound in plasma post session, 0.10 mg/kg i.m., mean 69.8 min post injection, group mean): 47.8 nM | concentration at 69.8 min ([2]; 0.3 mg/kg, nM total compound in plasma post session, 0.30 mg/kg i.m., individual subjects): 125 nM | concentration at 69.8 min ([2]; 0.3 mg/kg, nM total compound in plasma post session, 0.30 mg/kg i.m., mean 69.8 min post injection, group mean): 140 nM | concentration at 69.8 min ([2]; 1 mg/kg, nM total compound in plasma post session, 1.00 mg/kg i.m., individual subjects): 614 nM | concentration at 69.8 min ([2]; 1 mg/kg, nM total compound in plasma post session, 1.00 mg/kg i.m., mean 69.8 min post injection, group mean): 493 nM | concentration at 69.8 min ([2]; 1 mg/kg, plasma concentration at which efficacy was lost, scopolamine vsPAL model): 493 nM | concentration at 69.8 min ([2]; mean plasma concentration at which improved eventual accuracy was observed, experimental subjects on completion of behavioral testing, efficacious doses): 13.3 to 140 nM | net charge relative to acetylcholine (human nAChR α7): 78% | peak current response relative to acetylcholine (human nAChR α7): 24% | selectivity for nAChR α7 versus the 5-HT3 receptor (5-HT3 receptor): highly selective
